Assay results taken from US6518424B1, “Substituted pyrimidine compositions and methods of use” (Elan Pharmaceuticals, Inc., priority 1998, dated 2003).

What was measured:
[1] = target: T1, cPLA2 (Homo sapiens, UniProt P47712); experiment: cPLA2 enzyme assay using U937 cytosolic extract as enzyme source (release of [14C]-AA from phosphatidylcholine); format: biochemical; conditions: asterisk on compound number in Table I
T1 construct: using cPLA2 enzyme from the cytosolic extraction of U937 cells; endogenous in cells; host or cells: human U937 cells, cytosolic extract (N2 cavitation, 100,000 g supernatant)
T1 sequence (P47712 1-749): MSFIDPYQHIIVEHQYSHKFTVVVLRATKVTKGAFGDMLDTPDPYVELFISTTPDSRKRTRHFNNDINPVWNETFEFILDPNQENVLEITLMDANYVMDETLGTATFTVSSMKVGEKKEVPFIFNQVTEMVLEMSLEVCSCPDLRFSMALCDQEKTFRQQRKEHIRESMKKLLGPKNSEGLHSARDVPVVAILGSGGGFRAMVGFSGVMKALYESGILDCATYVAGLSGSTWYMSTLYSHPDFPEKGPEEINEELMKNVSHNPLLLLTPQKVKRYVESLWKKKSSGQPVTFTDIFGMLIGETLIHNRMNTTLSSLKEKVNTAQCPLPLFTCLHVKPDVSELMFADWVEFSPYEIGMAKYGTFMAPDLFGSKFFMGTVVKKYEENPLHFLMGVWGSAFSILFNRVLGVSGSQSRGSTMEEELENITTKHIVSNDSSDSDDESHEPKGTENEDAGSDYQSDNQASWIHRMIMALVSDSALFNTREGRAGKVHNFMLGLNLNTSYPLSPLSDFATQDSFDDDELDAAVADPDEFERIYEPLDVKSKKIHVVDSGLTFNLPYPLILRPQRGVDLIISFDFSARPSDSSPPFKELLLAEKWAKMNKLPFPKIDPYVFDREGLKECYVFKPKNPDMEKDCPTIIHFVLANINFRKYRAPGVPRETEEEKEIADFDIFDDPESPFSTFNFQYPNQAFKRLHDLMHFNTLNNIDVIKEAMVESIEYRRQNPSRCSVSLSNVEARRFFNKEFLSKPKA
Procedure: The PLA2 inhibitory properties of the compounds of the present invention were evaluated using the following assays. Inhibition of release of [^14C]-AA from phosphatidylcholine was measured according to standard methods. Human U937 cells were cultured in RPMI 1640 medium supplemented with 10% fetal bovine serum, penicillin, L-glutamine, and HEPES buffer. Cells were harvested and washed 3 times with extraction buffer (140 mM NaCl—5 mM KCl—2 mM EDTA—25 mM Tris pH 7.4) and resuspended at 1×10^8 cells/mL containing 100 μM leupeptin—50 μM pepstatin—1 mM PMSF. Cells were placed in a N2 cavitation bomb and put under pressure at 600 psi or maximum pressure for 20 minutes at 4° C. Cells were then released. The suspension was collected and centrifuged at 100,000 g for 60 minutes at 4° C. The resulting supernatant was collected and filtered through a 0.22 μm filter. Extract was then diluted to 50% glycerol and stored at −20° C.
For the preparation of substrate, 20 nmol of phosphatidylcholine-α-1-palmitoyl-2-arachidonyl-1-[^14C] and 10 nmol 1,2-dioleyl-glycerol were mixed together and dried under a N2 stream. A solution of 1 mL of 150 mM NaCl—50 mM HEPES pH 7.5 was added to the mixture. To reconstitute liposomes, the mixture was sonicated using a Branson 450 sonifier for 2 minutes at 50% duty cycle output level 3 on ice. After sonification, 40 μL of a 100 mg/mL BSA solution was added per mL.
The compounds were first dissolved in DMSO at 2 mM and serially diluted in DMSO by a factor of five for a total of 5 concentrations. These dilutions were further dissolved 60 fold in reaction buffer (150 mM NaCl—50 mM HEPES pH 7.5—1 mM CaCl2—1 mM 2-ME) containing approximately 5% of the U937 cytosolic extract to make up the preincubation mixture which was then incubated for 20 minutes at 37° C. Vehicle control using only DMSO with no compound was also made. To 30 μL of this Extract/compound mixture was added 10 μL of substrate. The 40 μL reaction mixture was incubated for 15 minutes at 37° C., and the reaction was stopped by adding 400 μL Dole's reagent [2-propanol/heptane/0.5 M H2SO4 (40:10:1) 10 μg/mL stearic acid]. This was followed by the addition of 240 μL heptane and 200 μL water. 280 μL of the top heptane layer was transferred to a tube containing […] silica gel with 200 μL heptane and mixed vigorously. Silica gel was then centrifuged at 1000 g for 1 minute. 400 μL of liquid was transferred to scintillation vial along with 4 mL of Beckman Ready Safe scintillation cocktail and mixed. Radioactivity was determined in a Beckman scintillation counter.
The compounds of the present invention were assayed for cPLA2 activity using cPLA2 enzyme from the cytosolic extraction of U937 cells (all procedures carried out on ice). […]

Row | SMILES | IC50 [1] | melting point
1 | CCCc1ccc(C(c2ccccc2)c2cc(O)nc(-c3ccccc3)n2)cc1 (centres unmarked) [Compound 19, 6-((4-Propyl)phenyl,phenyl)methyl-2-phenyl-pyrimidine-4-ol] | < 100 nM | 
2 | CC(C)Oc1ccc(C(c2ccccc2)c2cc(O)nc(-c3ccccc3)n2)cc1 (centres unmarked) [Compound 21, 6-((4-Isopropoxy)phenyl,phenyl)methyl-2-phenyl-pyrimidine-4-ol] | < 100 nM | 
3 | CC(C)Oc1ccc(C(c2ccccc2)c2cc(O)nc(-c3ccccc3)n2)cc1 (centres unmarked) [Compound 22, 6-((4-Isopropoxy)phenyl,phenyl)methyl-2-phenyl-pyrimidine-4-ol] | < 100 nM | 
4 | CCCc1ccc(C(c2ccccc2)c2cc(O)nc(-c3ccccc3)n2)cc1 (centres unmarked) [Compound 18, 6-((4-n-Propyl)phenyl,phenyl)methyl-2-phenyl-pyrimidine-4-ol] | < 100 nM | 149 to 154 °C
